In the supplement of paper PMC11451515:

How the values were obtained:
Test in all cases: AUC of viability dose-response curve (% viability x log10 dose units); higher = less sensitive
Details in all cases: 48 h
P12-Ichikawa = test system: P12-Ichikawa
Summary of the method: (§1)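 Area under the curve was integrated by trapezoidal rule from a log-logistic fit of normalised viability, with curves exceeding full viability scaled and quality-control failures removed. The fit had four parameters over log10 doses. Viability came from CellTiter-Glo One luminescence, normalised per plate to DMSO and cell-free wells, after leukemia cells adapted to each medium (500 or 1000 cells/well, 1536-well plates) were exposed to library compounds in DMSO for 48 h at 37°C. The 11 threefold doses ran from 47 μM to 0.79 nM.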

NOMO1 = test system: NOMO1
Summary of the method: as §1

SEM cells = test system: SEM cells
Summary of the method: as §1

[1] = RPMI 5 mM glucose + 10% dialyzed FBS

Compound	AUC of viability dose-response curve (P12-Ichikawa; HPLM + 10% dialyzed FBS)	AUC of viability dose-response curve (P12-Ichikawa; RPMI 5 mM glucose + 10% FBS)	AUC of viability dose-response curve (P12-Ichikawa; [1])	AUC of viability dose-response curve (NOMO1; HPLM + 10% dialyzed FBS)	AUC of viability dose-response curve (NOMO1; RPMI 5 mM glucose + 10% FBS)	AUC of viability dose-response curve (NOMO1; [1])	AUC of viability dose-response curve (SEM cells; HPLM + 10% dialyzed FBS)	AUC of viability dose-response curve (SEM cells; RPMI 5 mM glucose + 10% FBS)	AUC of viability dose-response curve (SEM cells; [1])
CCn1c(-c2nonc2N)nc2cncc(CNC3CCNCC3)c21	399	424	411	419	437	443	414	357	417
O=C1Nc2cc(Br)ccc2/C1=C1/Nc2ccccc2/C1=N\O	365	377	382	366	391	401	296	299	290
C[C@@H]1CN[C@H]2[C@@H](C)[C@@]\3(CC[C@H]\4[C@@H]5C/C=C6/C[C@@H](O)CC[C@]6(C)[C@H]5CC4=C3C)O[C@@H]2C1	454	441	449	449	460	451	460	462	469
